According to publication PMC2610413 (Bioorganic & medicinal chemistry letters, 2008):

Experiments:
[1] = test system: Tel-tyrosine kinase (Blk) transformed Ba/F3 cells; test: Cytotoxicity assay, Tel-Blk transformed Ba/F3 cells; conditions: cellular assay
Blk = Blk (Homo sapiens, UniProt P51451); test: Biochemical enzymatic kinase assay, Blk
[2] = cited from earlier work
EGFR (T790M) = conditions: cited from earlier work
Bmx kinase domain = Bmx kinase domain (Homo sapiens, UniProt P51813); test: Mass spectrometry of covalent modification of recombinant Bmx kinase domain; assay type: binding
[3] = target: Tel-wild-type Bmx transformed Ba/F3 cells (Homo sapiens, UniProt P51813); test: Cytotoxicity assay, Tel-wild-type Bmx transformed Ba/F3 cells; assay type: cell-based; conditions: cellular assay
Chain of Tel-wild-type Bmx transformed Ba/F3 cells (P41212 1-336 partner, one chain of several): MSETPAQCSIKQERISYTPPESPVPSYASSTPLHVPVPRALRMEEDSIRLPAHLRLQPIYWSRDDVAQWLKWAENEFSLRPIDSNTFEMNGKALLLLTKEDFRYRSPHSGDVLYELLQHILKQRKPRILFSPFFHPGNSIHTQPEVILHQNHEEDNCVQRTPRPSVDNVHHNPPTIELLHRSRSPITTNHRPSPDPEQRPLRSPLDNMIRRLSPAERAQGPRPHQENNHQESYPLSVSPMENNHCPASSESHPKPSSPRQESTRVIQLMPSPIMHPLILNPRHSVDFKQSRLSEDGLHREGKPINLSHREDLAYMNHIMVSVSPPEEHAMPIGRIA

Bmx = target: T1, Bmx (Homo sapiens, UniProt P51813); test: Biochemical enzymatic kinase assay, Bmx
T1 sequence (P51813 1-675): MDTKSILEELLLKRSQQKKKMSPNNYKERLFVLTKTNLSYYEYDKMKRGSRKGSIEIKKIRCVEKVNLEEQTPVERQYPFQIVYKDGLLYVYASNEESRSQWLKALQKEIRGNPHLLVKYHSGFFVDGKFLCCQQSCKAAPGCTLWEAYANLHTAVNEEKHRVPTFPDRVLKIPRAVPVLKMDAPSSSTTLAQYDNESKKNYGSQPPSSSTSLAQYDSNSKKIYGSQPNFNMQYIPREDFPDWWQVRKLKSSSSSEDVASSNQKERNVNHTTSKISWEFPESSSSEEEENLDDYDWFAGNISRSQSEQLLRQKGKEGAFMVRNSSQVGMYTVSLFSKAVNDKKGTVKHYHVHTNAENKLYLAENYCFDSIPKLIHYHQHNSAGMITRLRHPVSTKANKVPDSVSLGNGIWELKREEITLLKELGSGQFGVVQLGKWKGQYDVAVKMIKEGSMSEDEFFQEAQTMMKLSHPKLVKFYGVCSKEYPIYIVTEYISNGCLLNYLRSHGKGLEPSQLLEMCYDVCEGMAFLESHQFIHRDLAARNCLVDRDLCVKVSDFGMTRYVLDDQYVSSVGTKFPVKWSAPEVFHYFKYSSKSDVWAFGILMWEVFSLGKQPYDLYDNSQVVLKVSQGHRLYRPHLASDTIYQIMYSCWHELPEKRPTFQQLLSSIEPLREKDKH

full-length Flag-Bmx = target: T2, full-length Flag-Bmx (Homo sapiens, UniProt P51813); conditions: 10 μM; immunoprecipitated Flag-Bmx pre-incubated with drug at 4°C for 2 hrs
T2 sequence (P51813 1-675): T1 sequence (P51813 1-675)

Chain of Blk (P51451 whole entry, species assumed): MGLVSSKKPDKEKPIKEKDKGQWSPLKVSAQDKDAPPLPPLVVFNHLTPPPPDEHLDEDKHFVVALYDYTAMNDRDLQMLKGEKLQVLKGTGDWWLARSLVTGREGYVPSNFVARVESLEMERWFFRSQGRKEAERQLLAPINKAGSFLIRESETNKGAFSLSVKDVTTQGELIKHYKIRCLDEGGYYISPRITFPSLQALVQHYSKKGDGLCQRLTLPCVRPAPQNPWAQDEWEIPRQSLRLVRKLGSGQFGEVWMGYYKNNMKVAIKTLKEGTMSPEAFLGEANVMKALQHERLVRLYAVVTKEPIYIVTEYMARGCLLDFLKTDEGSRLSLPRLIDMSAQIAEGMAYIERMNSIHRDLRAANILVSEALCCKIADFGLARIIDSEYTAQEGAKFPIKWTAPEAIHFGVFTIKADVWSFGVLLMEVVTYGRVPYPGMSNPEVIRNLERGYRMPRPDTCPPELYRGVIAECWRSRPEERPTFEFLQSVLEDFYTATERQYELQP

C=CC(=O)Nc1cc2c(Nc3ccc(F)c(Cl)c3)ncnc2cc1OCCCN1CCOCC1 [CI-1033]
inhibitory activity against Blk [1]: potent inhibitory activity
inhibitory activity against Blk (Blk): potent inhibitory activity
toxicity in clinical phase II study [2]: severe toxicity

CCOc1cc2ncc(C#N)c(Nc3ccc(F)c(Cl)c3)c2cc1NC(=O)/C=C/CN(C)C [EKB-569]
inhibition of EGFR (T790M) (EGFR (T790M)): strongly inhibit

C=CC(=O)Nc1ccc2ncnc(Nc3cccc(Br)c3)c2c1 [PD168393]
site of modification (Bmx kinase domain; chymotryptic peptide ISNGCLL, tandem MS): modification of cysteine 496
mass increase of Bmx kinase domain after incubation with inhibitor (Bmx kinase domain; consistent with covalent addition of a single inhibitor molecule): 369 Da
inhibitory activity against Bmx [3]: only moderate potency
inhibitory activity against Bmx (Bmx): only moderate potency

C#Cc1cccc(Nc2ncnc3cc(OCCOC)c(OCCOC)cc23)c1 [erlotinib]
in vitro autophosphorylation of Bmx (32P incorporation) (full-length Flag-Bmx): not affected
